Measured values reported in ChEMBL document CHEMBL1629707, “Naphthalimide based novel organoselenocyanates: finding less toxic forms of selenium that would retain protective efficacy” (Bioorg Med Chem Lett, 2010).

Columns and labels:
Mus musculus [1] = assay: Increase of GST level in Swiss albino mouse liver assessed as CDNB-GSH conjugate per mg of protein at 3 mg/kg, po after 30 days (reference value: 95.66+/-4.0 nmol/min); type: functional
Mus musculus [2] = assay: Increase of GSH level in Swiss albino mouse liver assessed per mg of protein at 3 mg/kg, po after 30 days (reference value: 46.87+/-1.88 nmol); type: functional
Mus musculus [3] = assay: Increase of SOD level in Swiss albino mouse liver assessed per mg of protein at 3 mg/kg, po after 30 days (reference value: 250.16+/-7.46 U); type: functional
Mus musculus [4] = assay: Increase of CAT level in Swiss albino mouse liver assessed per mg of protein at 3 mg/kg, po after 30 days (reference value: 41.66+/-1.33 U); type: functional
Mus musculus [5] = assay: Increase of Gpx level in Swiss albino mouse liver assessed as NADPH oxidation per mg of protein at 3 mg/kg, po after 30 days (reference value: 0.646+/-0.030 umol); type: functional
Mus musculus [6] = assay: Increase of TRxR level in Swiss albino mouse liver assessed per mg of protein at 3 mg/kg, po after 30 days (reference value: 3.20+/-0.134 U); type: functional
[7] = Toxicity in po dosed Swiss albino mouse; type: organism-based; conditions: in vivo
Mus musculus [8] = assay: Toxicity in Swiss albino mouse assessed as loss of body weight at 3 mg/kg, po administered for 30 days; type: organism-based; parameters: dose 3 mg/kg, route oral; conditions: in vivo, 720 h
Mus musculus [9] = assay: Toxicity in Swiss albino mouse assessed as decrease in final body weight at 1.2 mg/kg, po administered for 30 days; type: organism-based; parameters: dose 1.2 mg/kg, route oral; conditions: in vivo, 720 h
Mus musculus [10] = assay: Toxicity in Swiss albino mouse assessed as hemoglobin level at 3 mg/kg, po after 30 days (reference value: 12.56+/-0.43 gm/dL); type: organism-based; parameters: dose 3 mg/kg, route oral; conditions: in vivo, 720 h
Mus musculus [11] = assay: Hepatotoxicity in Swiss albino mouse assessed as TBARS production per mg of protein at 3 mg/kg, po after 30 days (reference value: 0.26+/-0.02 nmol); type: toxicity, organism-based; parameters: dose 3 mg/kg, route oral; conditions: in vivo, 720 h
Mus musculus [12] = assay: Hepatotoxicity in Swiss albino mouse assessed as plasma ALT level at 3 mg/kg, po after 30 days (reference value: 66.00+/-4.18 U/mL); type: toxicity, organism-based; parameters: dose 3 mg/kg, route oral; conditions: in vivo, 720 h
Mus musculus [13] = assay: Hepatotoxicity in Swiss albino mouse assessed as plasma AST level at 3 mg/kg, po after 30 days (reference value: 179.00+/-4.18 U/mL); type: toxicity, organism-based; parameters: dose 3 mg/kg, route oral; conditions: in vivo, 720 h
Mus musculus [14] = assay: Nephrotoxicity in Swiss albino mouse assessed as BUN level at 3 mg/kg, po after 30 days (reference value: 21.57+/-0.92 mg/dL); type: toxicity, organism-based; parameters: dose 3 mg/kg, route oral; conditions: in vivo, 720 h
Mus musculus [15] = assay: Nephrotoxicity in Swiss albino mouse assessed as serum creatinine level at 3 mg/kg, po after 30 days (reference value: 9.40+/-0.48 mg/dL); type: toxicity, organism-based; parameters: dose 3 mg/kg, route oral; conditions: in vivo, 720 h
[16] = Induction of chromosomal aberration in Swiss albino mouse bone marrow cell at 3 mg/kg, po after 30 days (reference value: 14.88+/-0.99 %); type: organism-based; parameters: dose 3 mg/kg, route oral; conditions: in vivo, 720 h
Mus musculus [17] = assay: Nephrotoxicity in Swiss albino mouse assessed as inflammation at 3 mg/kg, po after 30 days by histopathology analysis; type: toxicity, organism-based; parameters: dose 3 mg/kg, route oral; conditions: in vivo, 720 h
Mus musculus [18] = assay: Nephrotoxicity in Swiss albino mouse assessed as lesion at 3 mg/kg, po after 30 days by histopathology analysis; type: toxicity, organism-based; parameters: dose 3 mg/kg, route oral; conditions: in vivo, 720 h
Mus musculus [19] = assay: Increase of Gpx level in Swiss albino mouse liver assessed as NADPH oxidation per mg of protein at 3 mg/kg, po after 30 days relative to control; type: functional
Mus musculus [20] = assay: Increase of TRxR level in Swiss albino mouse liver assessed per mg of protein at 3 mg/kg, po after 30 days relative to control; type: functional
Mus musculus [21] = assay: Hepatotoxicity in Swiss albino mouse assessed as necrosis at 3 mg/kg, po after 30 days by histopathology analysis; type: toxicity, organism-based; parameters: dose 3 mg/kg, route oral; conditions: in vivo, 720 h
Mus musculus [22] = assay: Hepatotoxicity in Swiss albino mouse assessed as inflammation at 3 mg/kg, po after 30 days by histopathology analysis; type: toxicity, organism-based; parameters: dose 3 mg/kg, route oral; conditions: in vivo, 720 h
Mus musculus [23] = assay: Hepatotoxicity in Swiss albino mouse assessed as lesion at 3 mg/kg, po after 30 days by histopathology analysis; type: toxicity, organism-based; parameters: dose 3 mg/kg, route oral; conditions: in vivo, 720 h
Mus musculus [24] = assay: Nephrotoxicity in Swiss albino mouse assessed as necrosis at 3 mg/kg, po after 30 days by histopathology analysis; type: toxicity, organism-based; parameters: dose 3 mg/kg, route oral; conditions: in vivo, 720 h
Mus musculus [25] = assay: Hepatotoxicity in Swiss albino mouse assessed as infiltration of mononuclear cells at 1.2 mg/kg after 30 days by histopathology analysis; type: toxicity, organism-based; parameters: dose 1.2 mg/kg; conditions: in vivo, 720 h
Mus musculus [26] = assay: Nephrotoxicity in Swiss albino mouse assessed as infiltration of mononuclear cells at 1.2 mg/kg after 30 days by histopathology analysis; type: toxicity, organism-based; parameters: dose 1.2 mg/kg; conditions: in vivo, 720 h
Mus musculus [27] = assay: Increase of GSH level in Swiss albino mouse liver assessed per mg of protein at 1.2 mg/kg, po after 30 days (reference value: 46.87+/-1.88 nmol); type: functional
Mus musculus [28] = assay: Increase of GST level in Swiss albino mouse liver assessed as CDNB-GSH conjugate per mg of protein at 1.2 mg/kg, po after 30 days (reference value: 95.66+/-4.0 nmol/min); type: functional
Mus musculus [29] = assay: Toxicity in Swiss albino mouse assessed as hemoglobin level at 1.2 mg/kg, po after 30 days (reference value: 12.56+/-0.43 gm/dL); type: organism-based; parameters: dose 1.2 mg/kg, route oral; conditions: in vivo, 720 h
Mus musculus [30] = assay: Hepatotoxicity in Swiss albino mouse assessed as TBARS production per mg of protein at 1.2 mg/kg, po after 30 days (reference value: 0.26+/-0.02 nmol); type: toxicity, organism-based; parameters: dose 1.2 mg/kg, route oral; conditions: in vivo, 720 h
Mus musculus [31] = assay: Hepatotoxicity in Swiss albino mouse assessed as plasma ALT level at 1.2 mg/kg, po after 30 days (reference value: 66.00+/-4.18 U/mL); type: toxicity, organism-based; parameters: dose 1.2 mg/kg, route oral; conditions: in vivo, 720 h
Mus musculus [32] = assay: Hepatotoxicity in Swiss albino mouse assessed as plasma AST level at 1.2 mg/kg, po after 30 days (reference value: 179.00+/-4.18 U/mL); type: toxicity, organism-based; parameters: dose 1.2 mg/kg, route oral; conditions: in vivo, 720 h
Mus musculus [33] = assay: Nephrotoxicity in Swiss albino mouse assessed as BUN level at 1.2 mg/kg, po after 30 days (reference value: 21.57+/-0.92 mg/dL); type: toxicity, organism-based; parameters: dose 1.2 mg/kg, route oral; conditions: in vivo, 720 h
Mus musculus [34] = assay: Nephrotoxicity in Swiss albino mouse assessed as serum creatinine level at 1.2 mg/kg, po after 30 days (reference value: 9.40+/-0.48 mg/dL); type: toxicity, organism-based; parameters: dose 1.2 mg/kg, route oral; conditions: in vivo, 720 h
[35] = Induction of chromosomal aberration in Swiss albino mouse bone marrow cell at 1.2 mg/kg, po after 30 days (reference value: 14.88+/-0.99 %); type: organism-based; parameters: dose 1.2 mg/kg, route oral; conditions: in vivo, 720 h
Mus musculus [36] = assay: Increase of SOD level in Swiss albino mouse liver assessed per mg of protein at 1.2 mg/kg, po after 30 days (reference value: 250.16+/-7.46 U); type: functional
Mus musculus [37] = assay: Increase of CAT level in Swiss albino mouse liver assessed per mg of protein at 1.2 mg/kg, po after 30 days (reference value: 41.66+/-1.33 U); type: functional
Mus musculus [38] = assay: Increase of Gpx level in Swiss albino mouse liver assessed as NADPH oxidation per mg of protein at 1.2 mg/kg, po after 30 days (reference value: 0.646+/-0.030 umol); type: functional
Mus musculus [39] = assay: Increase of TRxR level in Swiss albino mouse liver assessed per mg of protein at 1.2 mg/kg, po after 30 days (reference value: 3.20+/-0.134 U); type: functional

| SMILES | Activity (Mus musculus [1]) [nM] | Activity (Mus musculus [2]) [nM] | Activity (Mus musculus [3]) [U] | Activity (Mus musculus [4]) [U] | Activity (Mus musculus [5]) [U] | Activity (Mus musculus [6]) [U] | LD50 [7] [mg/kg] | Activity (Mus musculus [8]) | Activity (Mus musculus [9]) | Activity (Mus musculus [10]) [g/dL] | Activity (Mus musculus [11]) [nM] | Activity (Mus musculus [12]) [U/ml] | Activity (Mus musculus [13]) [U/ml] | Activity (Mus musculus [14]) [mg/dL] | Activity (Mus musculus [15]) [mg/dL] | Activity [16] [%] | further results |
| --- | --- | --- | --- | --- | --- | --- | --- | --- | --- | --- | --- | --- | --- | --- | --- | --- | --- |
| N#C[Se]CCCCCN1C(=O)c2cccc3cccc(c23)C1=O | 104.41 | 50.94 | 258.56 | 45.48 | 0.864 | 4.61 | > 1000 | Non-toxic | Toxic | 13.08 | 0.24 | 61 | 160 | 160 | 6.4 | 13.39 |  |
| N#C[Se]CCCCCN1C(=O)c2cccc3c(Cl)ccc(c23)C1=O | 106.58 | 59.34 | 268.71 | 46.6 | 0.995 | 4.21 | > 1000 | Non-toxic | Toxic | 12.86 | 0.26 | 64 | 142 | 142 | 7.45 | 13.97 |  |
| N#C[Se]CCCCCN1C(=O)c2cccc3cc([N+](=O)[O-])cc(c23)C1=O | 97.29 | 55.82 | 267.68 | 44.06 | 0.938 | 4.15 | > 1000 | Non-toxic | Toxic | 12.76 | 0.25 | 62 | 154 |  | 7.86 | 13.85 |  |
| N#C[Se]CCCCCN1C(=O)c2cccc3c(N)ccc(c23)C1=O | 116.19 | 60.4 | 296.03 | 53.04 |  |  | > 1000 | Non-toxic | Toxic | 13.24 | 0.22 | 59 | 148 | 148 | 7.13 | 12.7 | Activity (Mus musculus [17]): Non-toxic; Activity (Mus musculus [18]): Non-toxic; Activity (Mus musculus [19]): 63.77%; Activity (Mus musculus [20]): 53.43%; Activity (Mus musculus [21]): Non-toxic; Activity (Mus musculus [22]): Non-toxic; Activity (Mus musculus [23]): Non-toxic; Activity (Mus musculus [24]): Non-toxic |
| O=[Se]([O-])[O-].[Na+].[Na+] [SODIUM SELENITE] |  |  |  |  |  |  | 25 |  |  |  |  |  |  |  |  |  | Activity (Mus musculus [25]): Toxic; Activity (Mus musculus [26]): Toxic; Activity (Mus musculus [27]): 44.84 nM; Activity (Mus musculus [28]): 85.31 nM; Activity (Mus musculus [29]): 11.28 g/dL; Activity (Mus musculus [30]): 0.3 nM; Activity (Mus musculus [31]): 72 U/ml; Activity (Mus musculus [32]): 191 U/ml; Activity (Mus musculus [33]): 22.6 mg/dL; Activity (Mus musculus [34]): 8.47 mg/dL; Activity [35]: 16.4%; Activity (Mus musculus [36]): 236.98 U; Activity (Mus musculus [37]): 36.6 U; Activity (Mus musculus [38]): 0.692 U; Activity (Mus musculus [39]): 3.75 U |
